Values of other authors as cited in patent publication US20130183383A1, “PHARMACEUTICAL COMPOSITIONS FOR CALANOLIDES, THEIR DERIVATIVES AND ANALOGUES, AND PROCESS FOR PRODUCING THE SAME” (Craun Research SDN BHD, priority 2010, published 2013).

Conditions: soft gelatin capsules containing 100 mg (+)-calanolide A in oil-based / sesame oil-based vehicle

CCCc1cc(=O)oc2c3c(c4c(c12)OC(C)(C)C=C4)O[C@H](C)[C@@H](C)[C@@H]3O [calanolide A, (+)-Calanolide A]
Bioavailability: poor bioavailability
